Where two headings read alike, the source gives them in different places.
Key:
CDK1/Cyclin B1 = CDK1/Cyclin B1 (Homo sapiens (Human), UniProt P06493); assay: CDK1/Cyclin B1 ADP-Glo Kinase Assay; type: biochemical
Procedure, shortened: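 Purchased CDK1/Cyclin B1 was pre-incubated 30 min with inhibitor at room temperature, then reacted 90 min at room temperature after adding ATP-containing substrate. ADP formed was read by two-step ADP-Glo luminescence. IC50 came from a 4-parameter fit of fractional velocity versus inhibitor concentration.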

[1] = target: CDK2/Cyclin E1 full length (Homo sapiens (Human), UniProt P24941); assay: CDK2/Cyclin E1 Full length ADP-Glo Kinase Assay; type: biochemical; conditions: read-out: CDK2/CyclinE1 IC50
Experimental: CDK2/Cyclin E1 Full length ADP-Glo Kinase Assay
The purpose of CDK2/Cyclin El assay is to evaluate the inhibition (% inhibition and IC50 values) of small molecule inhibitors by using a Luminescent based ADP-Glo assay. CDK2/Cyclin El full length catalyzes the production of ADP from ATP. ADP-Glo assay monitors ADP producing biochemical reactions. ADP-Glo is performed in 2 steps upon completion of kinase reaction: a combined termination of kinase reaction and depletion of remaining ATP in the first step, and conversion of generated ADP to ATP and the newly produced ATP to light output using luciferase/luciferin reaction in the second step. The luminescent signal generated is proportional to the ADP concentration produced and is correlated with the kinase activity. CDK2/Cyclin E1 was purchased from Eurofins (Cat 14-475M). […] The assay was initiated with the addition of ATP-containing substrate solution, following a 30-minute pre-incubation of enzyme and inhibitor at room temperature in the reaction mixture. The reaction was stopped after 90 minutes at room temperature by the addition of 10 μL of ADP-GLO Reagent. After a 90 minute incubation, 20 uL of Kinase Detection Reagent was added. Samples were incubated for 40 minutes, after which plate well luminescence was measured on a Envision microplate reader. The IC50 determinations were made from a plot of the fractional velocity as a function of inhibitor concentration fit to the 4 parameters IC50 equation.

CDK4/Cyclin D1 [2] = target: T1, CDK4/Cyclin D1 (Homo sapiens (Human), UniProt P11802); assay: CDK4/Cyclin D1 CHEF Assay; type: biochemical; conditions: AQT; read-out: CDK4/CyclinD1 AQT IC50
T1 sequence (P11802 whole entry, species assumed): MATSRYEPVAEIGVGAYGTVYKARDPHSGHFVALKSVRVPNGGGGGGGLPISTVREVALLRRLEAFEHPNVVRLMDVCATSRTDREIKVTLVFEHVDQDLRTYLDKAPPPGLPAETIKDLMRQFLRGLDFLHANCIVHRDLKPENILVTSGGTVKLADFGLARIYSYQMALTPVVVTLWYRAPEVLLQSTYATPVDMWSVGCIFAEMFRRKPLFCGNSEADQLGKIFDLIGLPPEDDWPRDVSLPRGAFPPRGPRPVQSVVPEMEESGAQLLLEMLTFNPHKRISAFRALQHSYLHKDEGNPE
T1 sequence (P24385 whole entry partner, species assumed): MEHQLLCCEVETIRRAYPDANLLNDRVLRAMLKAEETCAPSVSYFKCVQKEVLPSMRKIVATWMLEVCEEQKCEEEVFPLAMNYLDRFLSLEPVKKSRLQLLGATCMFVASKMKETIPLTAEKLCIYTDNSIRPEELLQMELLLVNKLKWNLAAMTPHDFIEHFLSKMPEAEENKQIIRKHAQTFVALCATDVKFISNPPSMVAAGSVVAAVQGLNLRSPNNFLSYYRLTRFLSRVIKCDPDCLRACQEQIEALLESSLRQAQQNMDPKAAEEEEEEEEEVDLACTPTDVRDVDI
Procedure, shortened: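 Peptide substrate AQT0258 carries a Sox fluorophore whose Mg(II)-dependent fluorescence (ex 360/em 485 nm) rises on phosphorylation. Enzyme and inhibitor pre-incubated 30 min at 22 °C, substrate added, reaction run 3 h at 22 °C. IC50 from 4-parameter fit of fractional velocity vs inhibitor concentration.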

CDK6/Cyclin D3 = CDK6/Cyclin D3 (Homo sapiens (Human), UniProt Q00534); assay: CDK6/Cyclin D3 ADP-Glo Kinase Assay; type: biochemical; conditions: read-out: CDK6/CyclinD3 IC50
Chain of CDK6/Cyclin D3 (Q00534 whole entry): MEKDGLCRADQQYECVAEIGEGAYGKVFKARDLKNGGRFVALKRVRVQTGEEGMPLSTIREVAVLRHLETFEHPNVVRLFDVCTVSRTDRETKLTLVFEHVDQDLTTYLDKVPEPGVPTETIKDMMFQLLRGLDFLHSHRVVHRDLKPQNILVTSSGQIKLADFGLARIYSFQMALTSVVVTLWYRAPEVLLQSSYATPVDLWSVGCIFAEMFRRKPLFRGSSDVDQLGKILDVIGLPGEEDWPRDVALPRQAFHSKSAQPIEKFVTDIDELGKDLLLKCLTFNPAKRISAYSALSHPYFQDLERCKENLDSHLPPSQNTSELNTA
Chain of CDK6/Cyclin D3 (P30281 whole entry partner): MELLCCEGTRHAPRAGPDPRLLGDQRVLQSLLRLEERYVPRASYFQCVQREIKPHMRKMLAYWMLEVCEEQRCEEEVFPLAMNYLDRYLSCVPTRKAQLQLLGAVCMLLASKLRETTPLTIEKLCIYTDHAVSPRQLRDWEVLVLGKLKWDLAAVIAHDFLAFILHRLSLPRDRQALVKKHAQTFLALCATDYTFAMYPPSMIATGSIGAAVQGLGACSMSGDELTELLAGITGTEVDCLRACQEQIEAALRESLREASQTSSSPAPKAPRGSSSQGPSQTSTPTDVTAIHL
Procedure, shortened: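 Commercial CDK6/Cyclin D3 pre-incubated with inhibitor 30 min at room temperature, then reaction started with ATP/substrate and run 90 min at room temperature. ADP formed measured by ADP-Glo luminescence; IC50 from fractional velocity vs inhibitor concentration fit to a 4-parameter equation.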

MCF-7 cells = assay: Cell Growth Inhibition, MCF-7 (CellTiterGlo, 6 days); type: cell-based
Source text: (§1) MCF-7 and OVCAR-3 cells were used to evaluate the anti-proliferation activity of the CDK inhibitors. MCF-7 (ATCC, HTB-22) cells are epithelial cells from a patient with ER+ metastatic adenocarcinoma. OVCAR-3 (ATCC, HTB-161) cells were derived from malignant ascites of a patient with ovarian cancer and are known to have CCNE1 amplification. Both cell lines were maintained in RPMI media supplemented with 10% fetal bovine serum. For cell growth inhibition assay, CDK inhibitors in DMSO solution were dispensed with either Echo 655 (Beckman Coulter) or Tecan D300e (TIP) into 384-well plates (Corning #3765) and the 384-well plates were UV-sterilized prior to the assay. The inhibitors were typically tested in the 10-10,000 nM concentration range with half-log serial dilutions. MCF-7 or OVCAR-3 (500 cells/30 μL/well) were added to each well using Multidrop Combi (ThermoFisher) using standard cassettes. The assay plates with cells were cultured at 37° C., 5% CO2 for 6 days. At the end of the 6-day treatment, 30 μL of CellTiterGlo 2.0 (Promega) was added to each well and the luminescent signal was read using CLARIOstar plus (BMG). The percentage of cell growth inhibition (% CGI) was calculated using the following formula % CGI=100-100×luminescencesample/luminescenecontrol. The half maximal inhibitory concentration (IC50) was determined by nonlinear curve fitting (four parameters, variable slope).

OVCAR-3 cells = assay: Cell Growth Inhibition, OVCAR-3 (CellTiterGlo, 6 days); type: cell-based
Source text: as §1

CDK4/Cyclin D1 [3] = target: T1, CDK4/Cyclin D1; assay: CDK4/Cyclin D1 Mobility Shift Assay (MSA); type: biochemical; conditions: read-out: CDK4/CyclinD1 MSA IC50
Source text: CDK4/Cyclin D1 Mobility Shift Assay (MSA) The purpose CDK4/Cyclin D1 assay is to evaluate the inhibition (% inhibition and IC50 values) in the presence of small molecule inhibitors by using a fluorescence based microfluidic mobility shift assay. CDK4/Cyclin D1 catalyzes the production of ADP from ATP that accompanies the phosphoryl transfer to the substrate peptide 5-FAM-Dyrktide (5-FAM-[…]) (Perkin Elmer Peptide 34). The mobility shift assay (MSA) electrophoretically separates the fluorescently labelled peptides (substrate and phosphorylated product) following the kinase reaction. Both substrate and product are measured, and the ratio of these values is used to generate % conversion of substrate to product by the LabChip EZ Reader. Typical reaction solutions contained 2% DMSO (+/−inhibitor), 10 mM MgCl2, 1 mM EGTA, 0.05% BSA, 2 mM DTT, 0.2 mM ATP, 0.01% Brig-35, 1.5 uM 5-FAM-Dyrktide, 2.5 nM CDK4/Cyclin D1 in 50 mM HEPES buffer at pH 7.5. The reaction was initiated with the addition of substrate solution, following a 30-minute pre-incubation of enzyme and inhibitor at 22° C. in the reaction mix. The reaction was stopped after 180 minutes by the addition of 75 μL of 500 mM EDTA and measured on a Perkin Elmer EZ reader instrument. IC50 determinations were made from a plot of the fractional velocity as a function of inhibitor concentration fit to the 4 parameters IC50 equation.

Chain of CDK1/Cyclin B1 (P06493 whole entry): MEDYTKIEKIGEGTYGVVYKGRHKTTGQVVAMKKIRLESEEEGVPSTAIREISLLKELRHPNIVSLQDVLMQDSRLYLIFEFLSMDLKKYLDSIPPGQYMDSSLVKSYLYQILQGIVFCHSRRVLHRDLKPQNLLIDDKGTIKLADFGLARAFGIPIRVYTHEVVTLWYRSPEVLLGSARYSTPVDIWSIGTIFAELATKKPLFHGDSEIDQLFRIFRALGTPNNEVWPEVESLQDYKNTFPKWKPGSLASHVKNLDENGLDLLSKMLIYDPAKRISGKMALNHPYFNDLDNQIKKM
Chain of CDK1/Cyclin B1 (P14635 whole entry partner): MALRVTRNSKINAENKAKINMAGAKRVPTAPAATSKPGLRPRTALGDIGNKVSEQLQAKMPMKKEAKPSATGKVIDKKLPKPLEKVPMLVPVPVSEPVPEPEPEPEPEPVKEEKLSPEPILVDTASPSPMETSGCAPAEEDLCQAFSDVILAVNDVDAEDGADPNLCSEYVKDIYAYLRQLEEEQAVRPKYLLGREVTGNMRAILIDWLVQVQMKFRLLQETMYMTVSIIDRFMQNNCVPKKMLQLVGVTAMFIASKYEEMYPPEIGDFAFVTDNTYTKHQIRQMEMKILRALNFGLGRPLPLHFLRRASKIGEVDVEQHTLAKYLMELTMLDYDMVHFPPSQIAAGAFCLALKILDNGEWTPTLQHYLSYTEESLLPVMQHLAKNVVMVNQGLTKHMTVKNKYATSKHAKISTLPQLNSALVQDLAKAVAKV

Molecule | IC50 (CDK1/Cyclin B1) [µM] | IC50 [1] [µM] | IC50 (CDK4/Cyclin D1 [2]) [µM] | IC50 (CDK6/Cyclin D3) [µM] | IC50 (MCF-7 cells) [µM] | IC50 (OVCAR-3 cells) [µM] | IC50 (CDK4/Cyclin D1 [3]) [µM] | IC50 (MCF-7 cells; Homo sapiens, MCF7, 144 h) [µM] | IC50 (OVCAR-3 cells; Homo sapiens, 144 h) [µM]
1-cyclopropyl-3-(6-methyl-2-((1-(methylsulfonyl)piperidin-4-yl)amino)pyrido[3,4-d]pyrimidin-8-yl)cyclobutan-1-ol [Compound 85] | < 0.2 | < 0.2 | < 0.2 | < 0.2 | 0.5 to 2 | 0.5 to 2 |  |  | 
CS(=O)(=O)N1CC(Nc2ncc3ccnc(N4CCC5(C4)CC5(F)F)c3n2)C1 (stereo not shown) [Compound 14, 8-(1,1-difluoro-5-azaspiro[2.4]heptan-5-yl)-N-(1-(methylsulfonyl)azetidin-3-yl) pyrido[3,4-d]pyrimidin-2-amine] | 0.2 to 0.5 |  |  | < 0.2 |  |  | < 0.2 |  | 
CS(=O)(=O)N1CCC(Nc2ncc3ccnc(N4C[C@H]5c6ccccc6S(=O)(=O)[C@H]5C4)c3n2)CC1 [Compound 16, (3aR,8bR)-2-(2-((1-(methylsulfonyl)piperidin-4-yl)amino)pyrido[3,4-d]pyrimidin-8-yl)-2,3,3a,8b-tetrahydro-1H-benzo[4,5]thieno [2,3-c]pyrrole 4,4-dioxide] | < 0.2 | < 0.2 |  | < 0.2 |  |  | < 0.2 |  | 
CN1C[C@@H]2[C@H](C1)[C@H]2Nc1ncc2ccnc(N3CCC4(C3)CC4(F)F)c2n1 (stereo partly drawn) [Compound 17, 8-(1,1-difluoro-5-azaspiro[2.4]heptan-5-yl)-N-((1R,5S,6s)-3-methyl-3-azabicyclo[3.1.0]hexan-6-yl) pyrido[3,4-d]pyrimidin-2-amine] |  | 0.2 to 0.5 |  | 0.2 to 0.5 |  |  | < 0.2 |  | 
CCN1CC2(C1)CN(c1ccc(Nc3ncc4ccnc(N5CCC6(C5)CC6(F)F)c4n3)nc1)C2 (stereo not shown) [Compound 21, 8-(1,1-difluoro-5-azaspiro[2.4]heptan-5-yl)-N-(5-(6-ethyl-2,6-diazaspiro[3.3]heptan-2-yl)pyridin-2-yl)pyrido[3,4-d]pyrimidin-2-amine] | > 2 | 0.2 to 0.5 |  | < 0.2 |  |  | < 0.2 |  | 
Cc1cc2cnc(NC3CCN(S(C)(=O)=O)CC3)nc2c(C2CC(O)(C(F)F)C2)n1 (stereo not shown) [Compound 93, 1-(difluoromethyl)-3-(6-methyl-2-((1-(methylsulfonyl)piperidin-4-yl)amino)pyrido[3,4-d]pyrimidin-8-yl)cyclobutan-1-ol] | < 0.2 |  | < 0.2 | < 0.2 |  |  |  | 0.5 to 2 | 0.5 to 2
CS(=O)(=O)N1CCC(Nc2ncc3ccnc(N4CCC5(C4)CC(F)(F)C5)c3n2)CC1 [Example 2, 8-(2,2-difluoro-6-azaspiro[3.4]octan-6-yl)-N-(1-(methylsulfonyl)piperidin-4-yl)pyrido[3,4-d]pyrimidin-2-amine] | < 0.2 |  |  | < 0.2 |  |  | < 0.2 |  | 
CCN1CC2(C1)CN(c1ccc(Nc3ncc4ccnc(N5CCC6(C5)CC(F)(F)C6)c4n3)nc1)C2 [Example 6, 8-(2,2-difluoro-6-azaspiro[3.4]octan-6-yl)-N-(5-(6-ethyl-2,6-diazaspiro[3.3]heptan-2-yl)pyridin-2-yl)pyrido[3,4-d]pyrimidin-2-amine] | > 2 |  |  | < 0.2 |  |  | < 0.2 |  | 
